{"source": "ChEMBL document CHEMBL5625228", "about": "“Design, synthesis, and bioactivity evaluation of novel amide/sulfonamide derivatives as potential anti-inflammatory agents against acute lung injury and ulcerative colitis” (Eur J Med Chem, 2023)", "key": {"Mus musculus [1]": {"system": "Mus musculus", "assay": "Antiinflammatory activity against LPS-induced acute lung injury C57BL/6 mouse model assessed as suppression of TNF-alpha level in serum at 20 mg/kg, IG preincubated with compound for 30 mins followed by LPS-induction and measured after 6 hrs by ELISA analysis", "type": "functional, organism-based", "details": "time 390.0 min"}, "[2]": {"assay": "Clearance in Sprague-Dawley rat at 1 mg/kg, iv measured upto 24 hrs by LC-MS analysis", "type": "ADME, organism-based", "details": "in vivo"}, "[3]": {"assay": "Tmax in Sprague-Dawley rat at 10 mg/kg, po measured upto 24 hrs by LC-MS analysis", "type": "ADME, organism-based", "details": "in vivo"}, "[4]": {"assay": "MRT (0 to t) in Sprague-Dawley rat at 10 mg/kg, po measured upto 24 hrs by LC-MS analysis", "type": "ADME, organism-based", "details": "in vivo"}, "Mus musculus [5]": {"system": "Mus musculus", "assay": "Antiinflammatory activity against LPS-induced acute lung injury C57BL/6 mouse model assessed as decrease in IL-6 mRNA level in lung at 20 mg/kg, IG preincubated with compound for 30 mins followed by LPS-induction and measured after 6 hrs by qPCR analysis", "type": "functional, organism-based", "details": "time 390.0 min"}, "Mus musculus [6]": {"system": "Mus musculus", "assay": "Antiinflammatory activity against DSS-induced acute colitis C57BL/6 mouse model assessed as reduction in IL-6 level in serum at 5 mg/kg, po pretreated with DSS for 7 days followed by compound addition for every day for 10 days by ELISA analysis", "type": "functional, organism-based", "details": "time 10.0 day"}, "J774.A1 [7]": {"system": "J774.A1", "assay": "Antiinflammatory activity against LPS-induced mouse J774.A1 cells assessed as downregulation of IL-6 mRNA level preincubated with compound for 30 mins followed by LPS-induction and measured after 6 hrs by qPCR analysis", "type": "functional, cell-based", "details": "time 390.0 min"}, "Mus musculus [8]": {"system": "Mus musculus", "assay": "Antiinflammatory activity against DSS-induced acute colitis C57BL/6 mouse model assessed as reduction in crypt necrosis in colon at 5 mg/kg, po pretreated with DSS for 7 days followed by compound addition for every day for 10 days by H and E staining based analysis", "type": "functional, organism-based", "details": "time 10.0 day"}, "Mus musculus [9]": {"system": "Mus musculus", "assay": "Antiinflammatory activity against LPS-induced acute lung injury C57BL/6 mouse model assessed as pulmonary congestion in lung at 20 mg/kg, IG preincubated with compound for 30 mins followed by LPS-induction and measured after 6 hrs by H and E staining based analysis", "type": "functional, organism-based", "details": "time 390.0 min"}, "J774.A1 [10]": {"system": "J774.A1", "assay": "Antiinflammatory activity against mouse J774.A1 cells assessed as inhibition of LPS-induced TNF-alpha production pretreated with compound for 30 mins followed by LPS induction and measured after 24 hrs by ELISA analysis", "type": "functional", "details": "time 1470 min; 24.5 h"}, "[11]": {"assay": "AUC (0 to infinity) in Sprague-Dawley rat at 10 mg/kg, po measured upto 24 hrs by LC-MS analysis", "type": "ADME, organism-based", "details": "in vivo"}}, "note": "The source made the active and inactive calls. The calls are words filed in the database; no cut-off is given here."}
{"compound": "O=[N+]([O-])c1ccc(N2CCN(c3ccc(S(=O)(=O)NCc4ccccn4)cc3[N+](=O)[O-])CC2)cc1", "values": [{"measurement": "Activity", "setting": "Mus musculus [1]", "result": "Active"}, {"measurement": "clearance", "setting": "[2]", "result": 15, "unit": "mL/min/kg"}, {"measurement": "Tmax", "setting": "[3]", "result": 2.8, "unit": "h"}, {"measurement": "MRT last at 24 h", "setting": "[4]", "result": 7.2, "unit": "h"}, {"measurement": "Activity", "setting": "Mus musculus [5]", "result": "Active"}, {"measurement": "Activity", "setting": "Mus musculus [6]", "result": "Active"}, {"measurement": "Activity", "setting": "J774.A1 [7]", "result": "Active"}, {"measurement": "Activity", "setting": "Mus musculus [8]", "result": "Active"}, {"measurement": "Activity", "setting": "Mus musculus [9]", "result": "Active"}, {"measurement": "inhibition (INH)", "setting": "J774.A1 [10]", "result": 70.09, "unit": "%"}, {"measurement": "AUC", "setting": "[11]", "result": 1183.5, "unit": "ng·h/mL"}]}
